Data on six compounds can be found in ChEMBL document CHEMBL5360610, “N-Alkyl Carbamoylimidazoles as Versatile Synthons for the Synthesis of Urea-Based PSMA Inhibitors” (ACS Med Chem Lett, 2023).

Active and inactive are the calls of the source. No cut-off for these calls is given here.

As a reminder, the IC50 is the midpoint of a concentration-inhibition curve. Low readings indicate inhibition by little substance, high ones a need for much substance.

One assay deals with T1, Glutamate carboxypeptidase 2 (Homo sapiens, UniProt Q04609). Nature of the assay: Displacement of [18F]PSMA-1007 from human PSMA expressed in human LNCaP cells by competitive binding assay. Type of assay: cell-based.
Conditions: not given
(In a radioligand displacement assay an active substance lowers the binding of a labelled ligand.)
Target sequence in this assay (Q04609 whole entry): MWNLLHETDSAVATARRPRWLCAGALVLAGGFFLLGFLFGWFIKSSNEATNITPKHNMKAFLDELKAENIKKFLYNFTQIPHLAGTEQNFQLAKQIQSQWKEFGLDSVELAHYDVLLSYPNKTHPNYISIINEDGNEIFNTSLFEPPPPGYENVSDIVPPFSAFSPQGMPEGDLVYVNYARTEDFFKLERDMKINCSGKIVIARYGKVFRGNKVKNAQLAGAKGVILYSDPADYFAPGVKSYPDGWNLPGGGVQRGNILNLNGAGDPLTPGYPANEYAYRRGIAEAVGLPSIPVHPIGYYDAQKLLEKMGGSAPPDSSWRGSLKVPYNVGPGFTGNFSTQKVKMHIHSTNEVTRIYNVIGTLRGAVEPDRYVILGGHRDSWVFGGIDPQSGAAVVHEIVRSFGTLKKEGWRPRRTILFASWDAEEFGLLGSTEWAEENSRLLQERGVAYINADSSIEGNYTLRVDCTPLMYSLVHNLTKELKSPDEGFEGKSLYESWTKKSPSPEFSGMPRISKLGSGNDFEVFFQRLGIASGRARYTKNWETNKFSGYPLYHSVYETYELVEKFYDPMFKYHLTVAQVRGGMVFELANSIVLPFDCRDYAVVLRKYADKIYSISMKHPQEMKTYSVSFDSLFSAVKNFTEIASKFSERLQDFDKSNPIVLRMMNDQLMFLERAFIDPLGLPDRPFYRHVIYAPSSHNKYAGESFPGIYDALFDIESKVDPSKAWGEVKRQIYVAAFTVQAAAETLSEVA
In the case of `O=C(O)CC[C@H](NC(=O)N[C@@H](CCCC(=O)NCc1ccc(F)cc1)C(=O)O)C(=O)O`, the IC50 worked out at 1500 nM.

As to `O=C(O)CC[C@H](NC(=O)N[C@@H](CCCCNC(=O)[C@H](Cc1ccc2ccccc2c1)NC(=O)[C@H]1CC[C@H](CNC(=O)[C@H](CCC(=O)O)NC(=O)[C@H](CCC(=O)O)NC(=O)c2ccc(F)nc2)CC1)C(=O)O)C(=O)O`, the IC50 turned out to be 4 nM. The compound `O=C(O)CC[C@H](NC(=O)N[C@@H](CCCC(=O)Nc1ccc(F)nc1)C(=O)O)C(=O)O` had an IC50 of 90 nM. Compared with the last compound, the IC50 is about 22-fold higher.

In the case of `O=C(O)CC[C@H](CC(=O)N[C@@H](CCCCNC(=O)[C@H](Cc1ccccc1)NC(=O)COc1ccc(C[C@H](NC(=O)CCC(=O)CO/N=C/c2ccc(F)cc2)C(=O)O)cc1)C(=O)O)C(=O)O`, the IC50 came to 13 nM. This IC50 lies about 6.9-fold lower than the previous one.

The target of the next assay is T1, Glutamate carboxypeptidase 2. The experiment in a line: Displacement of [18F]PSMA-1007 from human PSMA expressed in human LNCaP cells at 0.1 to 100000 nM by competitive binding assay. Type of assay: cell-based. As to conditions: dose 0.1-100000 nM.
Target sequence in this assay (Q04609 whole entry, looked up): as the sequence (Q04609 whole entry) above
For the compound `O=C(Nc1scc(C(=O)O)c1C(=O)O)N[C@@H](CCCCNC(=O)c1ccc(F)cc1)C(=O)O`, the inhibition entry was “inactive”. Turning to `O=C(Nc1scc(C(=O)O)c1C(=O)O)N[C@@H](CCCCNC(=O)c1cccc(F)n1)C(=O)O`, the inhibition entry is “inactive”.
